Consider 5 molecules from patent US7902227B2, “C-7 isoxazolinyl quinolone / naphthyridine derivatives useful as antibacterial agents” (Janssen Pharmaceutica NV., priority 2008, dated 2011).

Converted amounts (≈) assume the structure as drawn. Bounds are passed on as bounds.

Common to all, as to format: cell-based
In test [1] the test system is strain C, fluoroquinolone-resistant clinical isolate of Streptococcus pneumoniae. Put plainly: In vitro antibacterial activity (MIC), microdilution broth method (NCCLS), strain C. To be noted: read-out: In vitro Antibacterial Activity MIC, C. On the procedure:
(§1) Minimal inhibitory concentration (MIC) has been an indicator of in vitro antibacterial activity widely used in the art. The in vitro antimicrobial activity of representative compounds of the present invention was determined by the microdilution broth method following the test method from the National Committee for Clinical Laboratory Standards (NCCLS). This method is described in the NCCLS Document M7-A4, Vol. 17, No. 2, “Methods for Dilution Antimicrobial Susceptibility Test for Bacteria that Grow Aerobically—Fourth Edition”, which is incorporated herein by reference.
(§2) In this method two-fold serial dilutions of drug in cation adjusted Mueller-Hinton broth are added to wells in microdilution trays. The test organisms are prepared by adjusting the turbidity of actively growing broth cultures so that the final concentration of test organism after it is added to the wells is approximately 5×10^4 CFU/well.
(§3) Following inoculation of the microdilution trays, the trays are incubated at 35° C. for 16-20 hours and then read. […] The amount of growth in the wells containing the test compound is compared with the amount of growth in the growth-control wells (no test compound) used in each tray. As set forth in Table 4, representative compounds of the present invention were tested against a variety of pathogenic bacteria resulting in a range of activities depending on the organism tested.
For orientation: Dilution methods test growth across graded concentrations, often in twofold steps.

Test [2] concerns Staphylococcus aureus OC4172. The experiment in a line: In vitro antibacterial activity (MIC), microdilution broth method (NCCLS), strain A. To be noted: cation adjusted Mueller-Hinton broth, 35° C., 16-20 hours. On the procedure:
as §1, §2, §3

For test [3], the system named is strain B, fluoroquinolone-resistant clinical isolate of Streptococcus pneumoniae. The experiment in a line: In vitro antibacterial activity (MIC), microdilution broth method (NCCLS), strain B. To be noted: read-out: In vitro Antibacterial Activity MIC, B. How it is done:
as §1, §2, §3

In test [4] the test system is strain D, fluoroquinolone-resistant clinical isolate of Streptococcus pneumoniae. Put plainly: In vitro antibacterial activity (MIC), microdilution broth method (NCCLS), strain D. To be noted: read-out: In vitro Antibacterial Activity MIC, D. On the procedure:
as §1, §2, §3

For test [5], the system named is Streptococcus pneumoniae ATCC 49619. The experiment in a line: In vitro antibacterial activity (MIC), microdilution broth method (NCCLS), strain E. To be noted: ATCC49619, 35° C., 16-20 hours. How it is done: as §1, §2, §3

In general, MIC refers to the smallest concentration in the dilution series that meets the test's criterion for growth inhibition. With `O=C(O)c1cn(C2CC2)c2nc(N3CC4ON=C(CO)C4C3)c(F)cc2c1=O` (stereo not shown) [ID No. 117, 1-Cyclopropyl-6-fluoro-7-(3-hydroxymethyl-3a,4,6,6a-tetrahydro-pyrrolo[3,4-d]isoxazol-5-yl)-4-oxo-1,4-dihydro-[1,8]naphthyridine-3-carboxylic acid], the MIC is 16 µg/mL (≈ 41.2 µM) in test [1]; 0.5 µg/mL (≈ 1.29 µM) in test [2]; 16 µg/mL (≈ 41.2 µM) in test [3]; 16 µg/mL (≈ 41.2 µM) in test [4]; 8 µg/mL (≈ 20.6 µM) in test [5].
`NCC1=NOC2CN(c3nc4c(cc3F)c(=O)c(C(=O)O)cn4-c3ccc(F)cc3F)CC12` (stereo not shown) [ID No. 200, 7-(3-Aminomethyl-3a,4,6,6a-tetrahydro-pyrrolo[3,4-d]isoxazol-5-yl)-1-(2,4-difluoro-phenyl)-6-fluoro-4-oxo-1,4-dihydro-[1,8]naphthyridine-3-carboxylic acid]: the minimal inhibitory concentration (MIC) is more than 16 µg/mL in test [1]; 0.12 µg/mL (≈ 0.261 µM) in test [2]; more than 16 µg/mL in test [3]; more than 16 µg/mL in test [4]; 1 µg/mL (≈ 2.18 µM) in test [5].
Regarding `COc1ccc(C2=NOC3CN(c4nc5c(cc4F)c(=O)c(C(=O)O)cn5C4CC4)CC23)cn1` (stereo not shown) [ID No. 111, 1-Cyclopropyl-6-fluoro-7-[3-(6-methoxypyridin-3-yl)-3a,4,6,6a-tetrahydro-pyrrolo[3,4-d]isoxazol-5-yl]-4-oxo-1,4-dihydro-[1,8]naphthyridine-3-carboxylic acid], the minimal inhibitory concentration (MIC) in test [1] stood at 4 µg/mL (≈ 8.59 µM); in test [2] it was 0.03 µg/mL (≈ 0.0645 µM); in test [3], 8 µg/mL (≈ 17.2 µM); in test [4] it was 2 µg/mL (≈ 4.3 µM); in test [5], 0.5 µg/mL (≈ 1.07 µM).
Taken in the same sequence, the figures for `O=C(O)c1cn(C2CC2)c2nc(N3CC4ON=C(CN5C(=O)c6ccccc6C5=O)C4C3)c(F)cc2c1=O` (stereo not shown) [ID No. 118, 1-Cyclopropyl-7-[3-(1,3-dioxo-1,3-dihydro-isoindol-2-ylmethyl)-3a,4,6,6a-tetrahydro-pyrrolo[3,4-d]isoxazol-5-yl]-6-fluoro-4-oxo-1,4-dihydro-[1,8]naphthyridine-3-carboxylic acid] were more than 16 µg/mL, 2 µg/mL (≈ 3.86 µM), more than 16 µg/mL, more than 16 µg/mL and 16 µg/mL (≈ 30.9 µM).
Taken in the same sequence, the figures for `O=C(O)c1cn(-c2ccc(F)cc2F)c2nc(N3CC4ON=C(c5ccccn5)C4C3)c(F)cc2c1=O` (stereo not shown) [ID No. 104, 1-(2,4-Difluoro-phenyl)-6-fluoro-4-oxo-7-(3-pyridin-2-yl-3a,4,6,6a-tetrahydro-pyrrolo[3,4-d]isoxazol-5-yl)-1,4-dihydro-[1,8]naphthyridine-3-carboxylic acid] were 2 µg/mL (≈ 3.94 µM), 0.06 µg/mL (≈ 0.118 µM), 0.5 µg/mL (≈ 0.985 µM), 4 µg/mL (≈ 7.88 µM) and 1 µg/mL (≈ 1.97 µM).
